Results on eight molecules are retold here after article PMC10055926.

“And” between values parts separate entries of the source, which are not always exact repeats. Equal values may be shown once. “Also recorded” adds a separate entry of the source. Where a name gives a salt, the structure may show the parent alone. Read-outs that look alike come from different tables or passages of the source. Where only a bound is given, the exact number is not on record here.

Data set [1] has as its system SARS-CoV-2. The experiment in a line: Time-of-addition (TOA) assay in HeLa-hACE2, dsRNA staining. The following applies: HeLa-hACE2, MOI 4, 2.5-5 µM compound, dsRNA readout at 8 hpi. It counts as cell-based.
The test system of data set [2] is SARS-CoV-2. The experiment in a line: SARS-CoV-2 viral RNA copy determination in A549-hACE2 cells (RT-qPCR on supernatant). The following applies: for reduction of SARS-CoV-2 RNA in the supernatant: A549-hACE2, RT-qPCR at 48 hpi; for EC50: read-out: EC50, viral RNA reduction in supernatant. It counts as cell-based. For orientation: In qPCR the cycle at which signal appears reflects the starting amount.

For a further data set, the system named is A549-hACE2 cells. The experiment in a line: Cytotoxicity in uninfected A549-hACE2 cells (ATPlite). The following applies: for CC50: read-out: CC50 in A549-hACE2, Toxicity (ATPlite), uninfected cells.
Data set [3] deals with SARS-CoV-2. In words: Immunofluorescence (HCI, dsRNA stain) antiviral assay, SARS-CoV-2 in HeLa-hACE2. The following applies: read-out: EC50 against SARS-CoV-2 in HeLa-hACE2. It is filed as cell-based.
The test system of data set [4] is SARS-CoV-2. The experiment in a line: SARS-CoV-2 antiviral assay in VeroE6-eGFP cells (CPE reduction, GFP). The following applies: for EC50: MOI 0.001, 96 h.
In a further data set the test system is SARS-CoV-1. In words: microbe, parasite or virus in culture. It is filed as cell-based. The following applies: 24 h, read-out: EC50 against SARS-CoV-1 in A549-hACE2.
In a further data set the test system is HeLa-hACE2 cells. The experiment in a line: Immunofluorescence-based antiviral assay with LysoTracker dye in HeLa-hACE2. The following applies: for LysoTracker signal intensity (in words): HeLa-hACE2, acidic organelle accumulation.
Another data set has as its system HCoV-229E. In words: microbe, parasite or virus in culture. It is filed as cell-based, human coronavirus 229E. The following applies: HCI (dsRNA stain), 24 h at 35 °C, read-out: EC50 against HCoV-229E in HeLa-hACE2.
For data set [5], the system named is SARS-CoV-2. The experiment in a line: Immunofluorescence (HCI, spike stain) antiviral assay, SARS-CoV-2 in A549-hACE2. It counts as cell-based. The following applies: read-out: EC50 against SARS-CoV-2 in A549-hACE2.
A short description of data set [6]: Cytotoxicity in uninfected A549-hACE2 cells (ATPlite). The following applies: human, A549-hACE2 cells. (In general: Cellular ATP, detected with luciferase, serves as a proxy for viable cell number.)
Data set [7] deals with SARS-CoV-2 pseudovirus (SARS2pp). The experiment in a line: microbe, parasite or virus in culture. It is filed as cell-based.
The test system is the same in data set [8]. The experiment in a line: microbe, parasite or virus in culture. The following applies: luciferase, 24 h, read-out: EC50, neutralization of SARS2pp entry in VeroE6. It is filed as cell-based.
The subject of data set [9] is SARS-CoV-2. In words: microbe, parasite or virus in culture. It is filed as cell-based, SARS-CoV-2 (Lineage A, B.1). The following applies: for EC50: vRNA (qPCR), read-out: EC50 against SARS-CoV-2 in HNECs; for antiviral activity in HNEC ALI cultures (in words): viral RNA copies in apical washes over three days.
Data set [10] is described as follows: in vitro. The following applies: human, Caco-2.
Another data set concerns the target T1, cathepsin L (Homo sapiens, UniProt P07711).
T1 construct: purchased Eurofins (contract assay)
In words: Enzymatic cathepsin L inhibition assay (Eurofins). It counts as biochemical.

Data set [11] concerns SARS-CoV-2. In words: Antiviral assessment in Caco-2 cells by visual CPE scoring. It counts as cell-based. The following applies: read-out: EC50 against SARS-CoV-2 in Caco-2.
A short description of data set [12]: in vitro. The following applies: African green monkey.
The subject of data set [13] is SARS-CoV-2.
Data set [14] in a line: in vitro. The following applies: African green monkey. The source holds these as a separate data set.
Where [15] appears, read: A549-hACE2, SARS-CoV-2 MOI 0.1, RT-qPCR at 48 hpi.
The mark [16] stands for this setting: read-out: EC50 against SARS-CoV-2 in VeroE6-eGFP, CPE reduction (GFP).
Where [17] appears, read: Severe acute respiratory syndrome coronavirus 2, A549-hACE2, SARS-CoV-2 MOI 0.1, RT-qPCR at 48 hpi.
[18] abbreviates: Severe acute respiratory syndrome-related coronavirus, VeroE6/TMPRSS2, SARS2pp, mean ± SD, unit inferred, [µM] only in axis labels, read-out: VeroE6 TMPRSS2: EC50 (Figure 6).
The mark [19] stands for this setting: Severe acute respiratory syndrome coronavirus 2, 24 h.
Where [20] appears, read: Severe acute respiratory syndrome coronavirus 2, 96 h, read-out: EC50 against SARS-CoV-2 in VeroE6-eGFP, CPE reduction (GFP).
Setting [21] is: Severe acute respiratory syndrome coronavirus.
[22] abbreviates: Severe acute respiratory syndrome-related coronavirus, Vero C1008.

T1 sequence (P07711 114-333): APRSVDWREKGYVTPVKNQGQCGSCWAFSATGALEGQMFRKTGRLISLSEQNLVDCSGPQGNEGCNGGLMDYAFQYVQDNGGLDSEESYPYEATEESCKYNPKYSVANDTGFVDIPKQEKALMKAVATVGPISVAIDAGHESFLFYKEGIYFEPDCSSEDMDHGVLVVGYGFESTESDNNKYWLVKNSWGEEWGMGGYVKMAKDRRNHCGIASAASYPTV

Consider `COc1cccc2[nH]c(C(=O)N[C@@H](CC(C)C)C(=O)N[C@@H](C[C@@H]3CCNC3=O)C(=O)CO)cc12` [PF-00835231], for which, in the data set on SARS-CoV-2 [1], the “time of addition until which inhibition of dsRNA formation was sustained” value is ~ 4 hpi. Besides, in the data set with SARS-CoV-2 [2], the “reduction of SARS-CoV-2 RNA in the supernatant” value (from here on “reduction of SARS-CoV-2 RNA”) is given as ~ 4.8 log. Moreover, the EC50 in the data set on SARS-CoV-2 [2] (setting [15]) was 530 nM and 532 nM; with SARS-CoV-2 [3] (24 h) it was 160 ± 20 nM; in the data set on SARS-CoV-2 [4] (setting [16]), greater than 50000 nM; with SARS-CoV-1 (HCI (spike stain), MOI 0.1), 550 ± 40 nM; in the data set on HCoV-229E, 470 ± 40 nM; in the data set with SARS-CoV-2 [5] (24 h) it was 180 ± 8 nM. For the same molecule, the CC50 in the data set with A549-hACE2 cells is greater than 12500 nM; in the data set on VeroE6-eGFP cells, greater than 20000 nM. Further, the “LysoTracker signal intensity (in words)” value with HeLa-hACE2 cells is reported as “neither one of the compounds increased the intensity of the LysoTracker signal”.

For the molecule `C[C@H](NC(=O)[C@H](Cc1ccc(O)cc1)NC(=O)OCc1ccccc1)C(=O)C=[N+]=[N-]`, in the data set on SARS-CoV-2 [1], the “time of addition from which antiviral activity was lost” value was no less than 2 h post virus infection. In the data set on SARS-CoV-2 [2], the “reduction of SARS-CoV-2 RNA” value was ~ 4 log and 4 log. The EC50 is 321 nM in the data set on SARS-CoV-2 [2] (setting [15]); 320 nM in the data set on SARS-CoV-2 [2] (setting [17]); greater than 30 µM in data set [7] (setting [18]); 10 ± 1 nM in the data set with SARS-CoV-2 [3] (24 h); 6 nM with SARS-CoV-2 [3] (setting [19]); 1330 ± 490 nM in the data set with SARS-CoV-2 [4] (setting [20]). Besides, the EC50 with SARS-CoV-1 (setting [21]) was 50 ± 16 nM; in data set [8] (setting [22]), 130 nM; in the data set on SARS-CoV-2 [9] (Severe acute respiratory syndrome coronavirus 2), greater than 20000 nM; in the data set with HCoV-229E it was 70 ± 10 nM; with HCoV-229E (Human coronavirus 229E, 24 h), 69 nM; in the data set with SARS-CoV-2 [5] (24 h), 50 ± 3 nM. In addition, the EC50 in the data set on SARS-CoV-2 [5] (setting [19]) is 46 nM; at cathepsin L (enzymatic assay, substrate Z-Phe-Arg AMC, one experiment), less than 50 nM; with SARS-CoV-2 [11] (Severe acute respiratory syndrome coronavirus 2, Caco-2, CPE reduction (manual scoring), MOI 0.01, 48 h), greater than 50000 nM. In addition, the CC50 in [6] is greater than 25000 nM; in “in vitro [10]” it was greater than 50000 nM. Also, in the data set on A549-hACE2 cells (uninfected A549-hACE2, ATPlite), the “cytotoxicity (in words)” value is “did not show cytotoxicity”. For the same molecule, the “activity against SARS2pp in VeroE6 TMPRSS2 (in words)” value in [7] is “not active at all”. The “selectivity index (SI), VeroE6-eGFP SARS-CoV-2” value in the data set with SARS-CoV-2 [4] (CC50/EC50 in VeroE6-eGFP) was greater than 15. Further, in the data set with HeLa-hACE2 cells, the “LysoTracker signal intensity (in words)” value is given as “did not significantly increase the intensity of the LysoTracker signal”. In the data set with SARS-CoV-2 [9] (compound at 20 µM), the “antiviral activity in HNEC ALI cultures (in words)” value is “does not inhibit SARS-CoV-2 infection; also recorded: did not show antiviral activity”. The “antiviral activity in differentiated HNECs (in words)” value in the data set on SARS-CoV-2 [9] (concentration not given) is “did not show antiviral activity”.

With `CN(C)C(=O)COC(=O)Cc1ccc(OC(=O)c2ccc(NC(=N)N)cc2)cc1` [Camostat mesylate, camostat mesylate], the EC50 in data set [7] (setting [18]) was 18 ± 5.52 µM; in [7] (Severe acute respiratory syndrome-related coronavirus, VeroE6/TMPRSS2, luciferase, 24 h, read-out: EC50, neutralization of SARS2pp entry in VeroE6 TMPRSS2) it was roughly 18 µM; in [8] (setting [22]), greater than 30000 nM. In the data set “in vitro [12]”, the CC50 was greater than 30000 nM.

On to `CCC(CC)COC(=O)[C@H](C)N[P@](=O)(OC[C@H]1O[C@@](C#N)(c2ccc3c(N)ncnn23)[C@H](O)[C@@H]1O)Oc1ccccc1` [Remdesivir, remdesivir], for which the “time of addition until which inhibition of dsRNA formation was sustained” value in the data set with SARS-CoV-2 [1] was ~ 4 hpi. Also, the “reduction of SARS-CoV-2 RNA” value in the data set on SARS-CoV-2 [2] is ~ 4.5 log. In addition, the EC50 turned out to be 411 nM in the data set on SARS-CoV-2 [2] (setting [15]); 410 nM in the data set with SARS-CoV-2 [2] (setting [17]); 110 ± 10 nM in the data set on SARS-CoV-2 [3] (setting [19]); 1340 nM in the data set with SARS-CoV-2 [4] (setting [20]); 330 ± 20 nM in the data set with SARS-CoV-1 (setting [21]); 1420 ± 150 nM in the data set on SARS-CoV-2 [13]. For the same molecule, the EC50 was 110 ± 9 nM in the data set with HCoV-229E (Human coronavirus 229E, 24 h); 180 ± 10 nM in the data set on SARS-CoV-2 [5] (setting [19]); 770 ± 260 nM with SARS-CoV-2 [11] (Severe acute respiratory syndrome coronavirus 2, Caco-2, 48 h). Moreover, the CC50 is greater than 25000 nM in data set [6] and greater than 100000 nM in the data set “in vitro [14]”. In addition, the “LysoTracker signal intensity (in words)” value with HeLa-hACE2 cells is recorded as “neither one of the compounds increased the intensity of the LysoTracker signal”.

As for `CC(=O)N[C@@H](CC(C)C)C(=O)N[C@@H](CC(C)C)C(=O)N[C@H](C=O)CCCNC(=N)N` [leupeptin], at cathepsin L (positive control), the “cathepsin L activity (in words)” value is recorded as “blocked cathepsin L activity”.

With `CC(C)(C)[C@H](NC(=O)C(F)(F)F)C(=O)N1C[C@H]2[C@@H]([C@H]1C(=O)N[C@H](C#N)C[C@@H]1CCNC1=O)C2(C)C` [PF-07321332, nirmatrelvir], the “time of addition until which inhibition of dsRNA formation was sustained” value in the data set with SARS-CoV-2 [1] was ~ 4 hpi. Further, in the data set with SARS-CoV-2 [9] (compound at 2.5 µM), the “antiviral activity in HNEC ALI cultures (in words)” value was “did”. Also, the concentration for a half-maximal effect (EC50) with SARS-CoV-2 [9] turned out to be 180 ± 140 nM.

For the molecule `CC(C)C(=O)OC[C@H]1O[C@@H](n2ccc(NO)nc2=O)[C@H](O)[C@@H]1O` [Molnu-Piravir, molnupiravir], the CC50 in data set [6] was greater than 50000 nM; in “in vitro [14]” it was greater than 100000 nM. The EC50 in the data set with SARS-CoV-2 [3] (setting [19]) came to 1010 ± 110 nM; in the data set on HCoV-229E (Human coronavirus 229E, 24 h), 1320 ± 180 nM.

For `CN1CCN(C(=O)N[C@@H](Cc2ccccc2)C(=O)N[C@H](/C=C/S(=O)(=O)c2ccccc2)CCc2ccccc2)CC1` [K777], the CC50 in the data set on A549-hACE2 cells was greater than 50 nM; with VeroE6 cells, greater than 30000 nM; with VeroE6-eGFP cells, roughly 50000 nM. Further, the EC50 in [7] (luciferase, 24 h, read-out: EC50, neutralization of SARS2pp entry in VeroE6 TMPRSS2) amounted to 18.6 µM; in the data set with SARS-CoV-2 [3] (24 h), 0.6 ± 0.05 nM; in the data set on SARS-CoV-2 [4] (setting [16]), 540 ± 140 nM; in the data set with SARS-CoV-1 (HCI (spike stain), MOI 0.1), 3 ± 0.5 nM; in data set [8], 23 nM; in the data set on HCoV-229E, 2 ± 0.4 nM. Moreover, in the data set with SARS-CoV-2 [5] (24 h), the EC50 was 4 ± 0.2 nM. Also, the “concentration at which the LysoTracker signal is significantly increased” value in the data set on HeLa-hACE2 cells (HeLa-hACE2, adjusted p-value < 0.05 vs virus control) is recorded as no less than 2.2 µM.

Broadly, the EC50 is the concentration at which the effect is half-maximal.
